In patent US10695446B2, “Composition and method for detecting hypoxia” (Vanderbilt University, priority 2015, dated 2020):
Counter-ions that a name gives are not always drawn.

Tests used:
[1] = In vitro stability (photostability) in solution, kinetic fluorescence; assay type: physicochemical; conditions: phosphate buffer, 100 nM, 37° C., ex 490 nm / em 520 nm
Description: HYPDX-4 was dissolved in phosphate buffer at a concentration of 100 nM and fluorescence was monitored at excitation maximum 490 nm and emission at 520 nm.

[2] = Solubility in aqueous solvents, buffers and cell-culture medium; assay type: physicochemical; conditions: neat water or saline, PBS, DMEM with 10% FBS; read-out: soluble at a concentration
[3] = tested on: retinal cross sections from RA mice; assay: TUNEL assay in retinal cross sections; assay type: in vivo, mouse; conditions: retinal cross sections from treated mice, DNase I positive control
Description: TUNEL assays were performed using Click-iT in situ apoptosis detection kit (Life Technology, USA). The mouse eyes were enucleated and fixed by immersing in 10% NBF for 25 minutes at 4° C. Then, they were fresh frozen in 30% sucrose and embedded in TissueTec OCT for cryosectioning (7 μm sections). The retinal cross-sections were then stained for fragmented DNA by incorporating alkyne-modified EdUTP nucleotide followed by detection with Alexafluor 647 azide in apoptotic cells. Retinal cross-sections were treated with DNase I as the positive control.

MIO-M1 cells [4] = assay: Cell viability assay (BrdU incorporation), MIO-M1 cells; assay type: cell-based, human; conditions: MIO-M1, 0-100 μM, 24 h
Description: (§1) Retinal cell-lines were treated with HYPDX-4 (100 μM) and the viability was measured using the bromodeoxyUridine (BrdU) incorporation assay according to the manufacturers protocol. Briefly, retinal cells were seeded in a 96-well plate for twenty four hours and serum starved for 6 hours. Then, cells were treated with HYPDX-4 and vehicle controls diluted in complete media and allowed to incubate for 24 h. Four hours prior to the end of the incubation, BrdU was added at a concentration of 10 μM and incorporation of BrdU was quantified by ELISA with the BrdU cell viability ELISA kit (Exalpha Biologicals; Shirley, Mass.).

[5] = tested on: retinal hypoxia, oxygen-induced retinopathy (OIR) mice; assay: Imaging of retinal hypoxia in the mouse OIR model; assay type: in vivo
Description: Mouse pups and their dams were placed in 75% oxygen from P7 to P12 according to the OIR oxygen treatment protocol.^27 On P12, litters were removed to room air and after 2 hours, HYPDX-4 (60 mg/kg in PBS) was administered by intraperitoneal injection. Twenty-four hours post-injection, in vivo HYPDX-4-dependent fluorescence imaging was performed. Briefly, mice were anesthetized with ketamine/xylazine, eyes were dilated with 1% tropicamide and placed on a warm platform, and fluorescent and bright field fundus images were acquired using the Micron IV retinal-imaging system (Phoenix Research Laboratories; Pleasanton, Calif.). Then, ex vivo imaging of HYPDX-4 dependent fluorescence was performed. The mice were sacrificed, enucleated, and the globes were fixed in 10% neutral buffered formalin (NBF). Retinas were dissected and stained directly with Alexa Fluor 647-conjugated isolectin B4 then flat-mounted on a microscope slide with Prolong Gold mounting medium (Life Technologies, Grand Island, N.Y.). Images were captured using an epifluorescence ‘Nikon Eclipse Ti-E’ inverted microscope (Melville, N.Y.).
Some mice received intraperitoneal injections of pimonidazole hydrochloride at a concentration of 60 mg/kg body weight two hours after removal to the room air; they were sacrificed and enucleated one hour later. The globes were fixed in 10% NBF for 2 hours; retinas were dissected and washed with tris-buffered saline (TBS), then they were blocked/permeabilized in 10% donkey serum with 1% Triton X-100/0.05% Tween 20 in TBS for 6 hours, and stained with an antibody against pimonidazole-adducts followed by the secondary anti-rabbit IgG conjugated to Alexa Fluor 647- and Alexa Fluor 488-conjugated isolectin B4. The retinas were mounted on microscope slides with Prolong Gold mounting medium. Ex vivo images were captured using an epifluorescence ‘Nikon Eclipse Ti-E’ inverted microscope.

R28 cells [6] = assay: Cell viability assay (BrdU incorporation), R28 cells; assay type: cell-based, rat; conditions: R28, 0-100 μM, 24 h
Description: as §1

R28 cells [7] = assay: In vitro hypoxia-induced HYPDX-4-dependent fluorescence assay, R28 cells; assay type: cell-based, rat
Description: (§2) ARPE-19 cells were cultured in DMEM/F12 supplemented with 10% Fetal Bovine Serum, 1× GlutaMAX, and 1× Gentamicin/Amphotericin B. MIO-M1 and R28 cells were cultured in low glucose DMEM supplemented with 10% Fetal Bovine Serum, 1× GlutaMAX, and 1× Penicillin-Streptomycin. Cells were maintained in a humidified environment with 5% CO2 at 37° C. unless otherwise noted. The cells were cultured in 96 microwell plates, with HYPDX-4 concentrations ranging from 10 to 100 μM in complete medium, or 100 μM pimonidazole hydrochloride in complete medium. To establish a hypoxic environment, the cells were placed into a humidified hypoxic chamber and flushed with a mixture of 95% N2 and 5% CO2, at a flow rate of 20 L/min for 5 min according to manufacturer instructions. The chamber was clamped and placed at 37° C. for the duration of the treatment. The oxygen level was monitored using the Traceable™ Dissolved Oxygen Meter Pen (Fisher Scientific; Pittsburg, Pa.). […]
(§3) ARPE-19, MIO-M1 were seeded at 20,000 and R28 at 15,000 cells per well, respectively, in a 96-well black plate with a clear bottom. […] Fluorescence intensity was measured ([…]: 490 nm, Emission: 520 nm) using a microplate reader (Biotek; Winooski, Vt.).

[8] = tested on: retinal hypoxia, laser-induced retinal vein occlusion (RVO) mice; assay: Imaging of retinal hypoxia in the mouse RVO model; assay type: in vivo; conditions: for pattern of retinal hypoxia image in RVO retina: HYPDX-4-dependent imaging versus pimonidazole-adduct immunostaining, 60 mg/kg i.p.
Description: Laser-induced retinal vein occlusion was performed as previously described.^31 Briefly, C57BL/6 female mice were anesthetized by intraperitoneal injection of ketamine/xylazine and the eyes were dilated using 1% tropicamide. A phosphate buffered solution of 39.31 mM rose bengal (4,5,6,7-tetrachloro-2′,4′,5′,7′-tetraiodo-fluorescein disodium salt, certified purity, 95%; Sigma, St. Louis, Mo.) was sterilized by passage through a 0.22-μm filter, and tail vein injected at a dose of 40 mg/kg. An argon laser photocoagulator (green light) mounted on a slit-lamp (Space Coast Laser Inc. Palm Bay, Fla.) was used to create retinal vein-occlusion (50-μm spot size, 1-second duration, 50 mW). Three laser applications were required to completely stop the blood flow as determined by observing the fundus image with a slit-lamp microscope. In each fundus, only one or two veins was/were photocoagulated to create retinal ischemia. Two hours post-RVO, mice were divided into two groups and received intraperitoneal injection of the HYPDX-4 (60 mg/kg body weight) or pimonidazole hydrochloride (60 mg/kg body weight). Twenty-two hours post-injection of HYPDX-4, in vivo HYPDX-4 dependent fluorescence imaging was performed. The mice were anesthetized with ketamine/xylazine, dilated with 1% tropicamide, and placed on a warm platform; TRITC-Dextran 500 (Sigma, St. Louis, Mo.) was injected systemically at a dose of 20 mg/kg; and fluorescent and bright field fundus images were acquired using the Micron IV retinal-imaging system. Mice were sacrificed, enucleated and the globes were fixed in 10% NBF. HYPDX-4-dependent fluorescence was imaged ex vivo as previously described in the OIR section. For the pimonidazole hydrochloride-injected group, the animals were sacrificed one hour after injection, enucleated and the globes were fixed in 10% NBF. The retinas were processes and ex vivo images were captured as described above for mouse OIR.

ARPE-19 cells = assay: In vitro hypoxia-induced HYPDX-4-dependent fluorescence assay, ARPE-19 cells; assay type: cell-based, human; conditions: ARPE-19, 0.1% oxygen, 10 μM to 100 μM
Description: as §2, §3

retina of RA mice = assay: Electroretinography (ERG) measurements; assay type: in vivo, mouse; conditions: 100 mg/kg systemic, dark-adapted mice, 7 days post administration, various flash intensities
Description: ERG measurements were performed according to previously published methods.^32,33 Briefly, ERG analysis was performed on mice injected with HYPDX-4 (100 mg/kg) at one week post-injection. Animals were dark adapted overnight, anesthetized with ketamine/xylazine, dilated with 1% tropicamide, and placed on a warm platform within the Ganzfeld dome of a Diagnosys LLC Espion Electrophysiology system (Lowell, Mass., USA). Mice were exposed to flashes of light ranging from −4 to 2 log cd·s/m^2 and the amplitudes of a-wave and b-wave were measured from baseline to peak. The amplitude of the a-wave and b-wave were plotted as a function of luminance.

MIO-M1 cells [9] = assay: In vitro hypoxia-induced HYPDX-4-dependent fluorescence assay, MIO-M1 cells; assay type: cell-based, human; conditions: MIO-M1, 0.1% oxygen, 10 μM to 100 μM
Description: as §2, §3

R28 cells [10] = assay: In vitro imaging of R28 cells using HYPDX-4; assay type: cell-based, rat
Description: R28 cells were seeded at a density of 45,000 cells per well in 3 wells of 4-well chamber slides. When cells were 90% confluent, 2 wells were treated with HYPDX-4 in complete medium, and one well was treated with pimonidazole hydrochloride diluted in complete medium. The cells were cultured in hypoxia or normoxia for 4 hours. Cells were washed 3 times with HBSS, fixed with 10% neutral buffered formalin (NBF) for 10 minutes at room temperature, washed 3 times with TBS and mounted with Prolong Gold with DAPI mounting media. Pimonidazole-adducts were immunostained according to manufacturer's protocol. HYPDX-4 dependent fluorescence images were taken using an epifluorescence microscope.

[11] = tested on: human Müller cells (MIO-M1); assay: Pimonidazole-adduct immunodetection of hypoxia in MIO-M1 cells; assay type: cell-based; conditions: MIO-M1, 100 μM, 4 hours
Description: ARPE-19 cells were cultured in DMEM/F12 supplemented with 10% Fetal Bovine Serum, 1× GlutaMAX, and 1× Gentamicin/Amphotericin B. MIO-M1 and R28 cells were cultured in low glucose DMEM supplemented with 10% Fetal Bovine Serum, 1× GlutaMAX, and 1× Penicillin-Streptomycin. Cells were maintained in a humidified environment with 5% CO2 at 37° C. unless otherwise noted. The cells were cultured in 96 microwell plates, with HYPDX-4 concentrations ranging from 10 to 100 μM in complete medium, or 100 μM pimonidazole hydrochloride in complete medium. To establish a hypoxic environment, the cells were placed into a humidified hypoxic chamber and flushed with a mixture of 95% N2 and 5% CO2, at a flow rate of 20 L/min for 5 min according to manufacturer instructions. The chamber was clamped and placed at 37° C. for the duration of the treatment. The oxygen level was monitored using the Traceable™ Dissolved Oxygen Meter Pen (Fisher Scientific; Pittsburg, Pa.). To confirm induction of hypoxia, cells were treated with 100 μM pimonidazole hydrochloride diluted in complete medium, subjected to hypoxia or normoxia for 4 hours and immunostained for pimonidazole-adducts according to manufacturer's protocol.

Description for physchem: A mixture of Octanol (500 uL) and water (500 uL) was added to HYPDX-4 (173 μg), or Pimonidazole Free base (742 μg) or Pimonidazole HCl (1 mL, 50 mg/mL) in an eppendorf tube and gently mixed in a rotator for 2 days. The aqueous and octanol layers were separated and the Optical Density (OD) was measured in microplate spectrophotometer instrument. The amount of HYPDX-4, Pimonidazole Free base and Pimonidazole HCl was calculated from the standard curve.

CCN1/C(=C/C=C/C=C/C2=[N+](CCCCS(=O)(=O)[O-])c3ccc4ccccc4c3C2(C)C)C(C)(C)c2cc(CC(=O)NCC3CCN(CC(O)Cn4ccnc4[N+](=O)[O-])CC3)ccc21 (stereo not drawn) [HYPDX-4]
photostability in solution, duration [1]: at least 24 hours | solubility [2]: ≥ 100 µM | retinal cell apoptosis (TUNEL) [3]: No apoptosis was observed | logP at 2 days (physchem): -2.58 | cell viability (BrdU incorporation) (MIO-M1 cells [4]): did not affect cell viability | HYPDX-4-dependent fluorescence in OIR retina ([5]; OIR pups, 60 mg/kg i.p. on P12, imaging 24 hours post-injection, central avascular retina): detected in vivo as well as ex vivo | HYPDX-4 dependent fluorescence in room air control retina ([5]; age matched RA (P13) control pups, same treatment): undetectable | retinal layers showing HYPDX-4-dependent fluorescence (hypoxia), cross sections ([5]; ex vivo retinal transverse sections from OIR pups): inner plexiform and inner nuclear layers | cell viability (BrdU incorporation) (R28 cells [6]): did not affect cell viability | HYPDX-4-dependent fluorescence versus oxygen concentration (R28 cells [7]; 100 μM, oxygen 0.1% to 20.9%, 4 hours): maximal at 0.1% oxygen | HYPDX-4 dependent fluorescence, dose dependence (R28 cells [7]; R28, 0.1% oxygen, 10 μM to 100 μM): optimal signal to noise ratios at the 100 μM dose | HYPDX-4-dependent fluorescence in RVO retina ([8]; 60 mg/kg i.p. two hours after occlusion, imaging 22 hours post-injection): detected downstream and laterally from the occlusion | pattern of retinal hypoxia image in RVO retina [8]: more confluent image of retinal hypoxia | HYPDX-4 dependent fluorescence, dose dependence (ARPE-19 cells): optimal signal to noise ratios at the 100 μM dose | ERG mean a-wave amplitudes versus vehicle (PBS) and sodium fluorescein (retina of RA mice): no significant changes in mean a-wave amplitudes | ERG mean b-wave amplitudes versus vehicle (PBS) and sodium fluorescein (retina of RA mice): no significant changes in mean b-wave amplitudes | HYPDX-4 dependent fluorescence, dose dependence (MIO-M1 cells [9]): optimal signal to noise ratios at the 100 μM dose | cellular fluorescence imaging, hypoxic cells (R28 cells [10]; R28, 100 μM, 0.1% oxygen, 4 hours): Hypoxia-specific, HYPDX-4-dependent fluorescence activity | cellular fluorescence imaging, normoxic cells (R28 cells [10]; R28, normoxia): Minimal

O=[N+]([O-])c1nccn1CC(O)CN1CCCCC1 (stereo not drawn) [Pimonidazole HCl, reference compound]
pimonidazole-adduct fluorescence, hypoxic cells ([11]; hypoxia): Significant fluorescence enhancement | pimonidazole-adduct fluorescence, normoxic cells ([11]; normoxia): minimal fluorescence signal | logP at 2 days (physchem): -2.06 | pimonidazole immunostaining of retinal hypoxia in OIR pups ([5]; 60 mg/kg i.p., ex vivo, sacrificed one hour later): confirmed | pattern of retinal hypoxia image in RVO retina [8]: patchy
